Data from patent US20210009583A1, “DEUTERATED IMIDAZOPYRIDINES” (UNIVERSITY OF NOTRE DAME DU LAC, priority 2018, published 2021).
Where “and” joins values, the source holds several entries; their conditions need not be identical. Equal values may be shown once. Entries after “also recorded” stand apart in the source; their conditions may differ. Read-outs that look alike come from different tables or passages of the source.

Key:
[1] = Body weight at gross necropsy after 4 weeks of treatment (chronic model); type: in vivo, Balb/c mouse; conditions: individual mice
Procedure: When evaluated in the “Chronic Balb/c mouse model” of M. tuberculosis infection by the method of Lenaerts, A. J., et. al. 2005. Preclinical testing of the nitroimidazopyran PA-824 for activity against M. tuberculosis in a series of in vitro and in vivo models. AAC. 49(6):2294-301. ND-012101 at 200 mg/kg and ND-012101(100 mg/kg)+ABT (100 mg/kg) both achieved 100% mouse survival after 4 weeks of oral dosing.

M. tuberculosis = test: Chronic Balb/c mouse model of M. tuberculosis infection; type: in vivo; conditions: for CFU drop (bacteriostatic activity) / Mouse survival: 4 weeks of oral dosing; for Spleen, gross necropsy observation: after 4 weeks of treatment, individual mice; for Lung Log10 CFU ± SEM / Spleen Log10 CFU ± SEM / Log reduction vs CTL (Lg) / Log reduction vs CTL (Sp): 4 Week Treatment; for Log reduction vs CTL (Lg): lung; for Log reduction vs CTL (Sp): spleen
[2] = Single dose pharmacokinetic study after oral administration, with and without ABT pre-dosing; type: in vivo, female Balb/c mice; conditions: for % AUC Extrap / Cmax / AUC(0-inf) / Tmax / half-life / AUC: female Balb/c mice, single oral dose 200 mg/kg; for concentration at 0.5 h / concentration at 2 h / concentration at 4 h / AUC(0-x)/Dose / AUC(0-∞)/Dose / Cmax/Dose / concentration at 8 h / concentration at 12 h / concentration at 24 h: female, Balb/c; for concentration at 0.5 h / concentration at 2 h / concentration at 4 h / AUC(0-x)/Dose / AUC(0-∞)/Dose / Cmax/Dose / concentration at 8 h / concentration at 12 h / Cmax / AUC(0-inf) / Tmax / half-life / AUC / concentration at 24 h: mouse, in vivo; for AUC: read-out: AUC(0-x)
Procedure: Based on MIC and acute toxicity data, two compounds ND-011176 and a deuterated analog ND-012101 were selected for evaluation in a single dose pharmacokinetic study (with and without pre-dosing of 1-Aminobenzotriazole, ABT) after oral administration to female Balb/c mice.
All animals were administered with the prepared test article via oral gavage at a target dose level of 200 mg/kg and at the dose volume detailed in the table 1 below. Each animal in Groups 2, 4, 6, 8 and 10 received a dose of ABT (100 mg/kg) via oral gavage two hours prior to Test Article administration.
Whole blood samples (0.1 mL each) were collected at the first time point via submandibular vein (SMV), or an appropriate peripheral vein if it was necessary. Up to 0.5 mL of whole blood was collected at terminal blood collection via intra cardiac puncture (ICP). For animals 1-3 from each of the 10 Groups, blood samples were collected at 0.5 and 4 hours after oral dosing. […]
The plasma samples and dose formulation samples were analyzed by the Testing Facility to determine the concentration of the test article using LC-MS/MS. PK parameters were estimated from the plasma concentration-time data by standard non-compartmental methods utilizing suitable analysis software.

TB infection = conditions: cited from earlier work
[3] = 0.5 h, PO 200 mg/kg + 100 mg/kg ABT
[4] = 0.5 h, PO 200 mg/kg, no ABT, 200 mg/kg
[5] = 2 h, PO 200 mg/kg + 100 mg/kg ABT
[6] = 2 h, PO 200 mg/kg, no ABT, 200 mg/kg
[7] = 4 h, PO 200 mg/kg + 100 mg/kg ABT
[8] = 4 h, PO 200 mg/kg, no ABT, 200 mg/kg
[9] = 5 h (mean of the "8" and "12" TP samples taken before euthanasia), PO 200 mg/kg + 100 mg/kg ABT
[10] = 8 h, PO 200 mg/kg, no ABT, 200 mg/kg
[11] = 12 h, PO 200 mg/kg, no ABT, 200 mg/kg
[12] = 0.5 h, PO 200 mg/kg + 100 mg/kg ABT, read-out: Drug plasma concentration, Average
[13] = 0.5 h, PO 200 mg/kg + 100 mg/kg ABT, read-out: Drug plasma concentration, individual mice
[14] = 2 h, PO 200 mg/kg + 100 mg/kg ABT, read-out: Drug plasma concentration, Average
[15] = 2 h, PO 200 mg/kg + 100 mg/kg ABT, read-out: Drug plasma concentration, individual mice
[16] = 4 h, PO 200 mg/kg + 100 mg/kg ABT, read-out: Drug plasma concentration, Average
[17] = 4 h, PO 200 mg/kg + 100 mg/kg ABT, read-out: Drug plasma concentration, individual mice
[18] = po, 200 mg/kg, 0.5 h, PO 200 mg/kg, no ABT, read-out: Drug plasma concentration, Average
[19] = po, 200 mg/kg, 0.5 h, PO 200 mg/kg, no ABT, read-out: Drug plasma concentration, individual mice
[20] = po, 200 mg/kg, 2 h, PO 200 mg/kg, no ABT, read-out: Drug plasma concentration, Average
[21] = po, 200 mg/kg, 4 h, PO 200 mg/kg, no ABT, read-out: Drug plasma concentration, Average
[22] = po, 200 mg/kg, 8 h, PO 200 mg/kg, no ABT, read-out: Drug plasma concentration, Average
[23] = po, 200 mg/kg, 12 h, PO 200 mg/kg, no ABT, read-out: Drug plasma concentration, Average
[24] = po, 200 mg/kg, 12 h, PO 200 mg/kg, no ABT, read-out: Drug plasma concentration, individual mice
[25] = ABT 100 mg/kg PO 2 h before, manually added from the TA concentration data

[2H]c1c(C([2H])([2H])[2H])c([2H])n2c(C(=O)NCc3ccc(C(F)(F)F)cc3)c(C)nc2c1[2H] [ND-012101]
Weight ([1]; Group 3, ND-012101 + ABT): 20.4 (2×) and 20.8 and 20.0 and 20.5 and 18.6
Weight ([1]; Group 6, ND-012101 alone): 21.5 (2×) and 20.7 and 20.3 and 19.9 and 20.8
CFU drop (bacteriostatic activity) (M. tuberculosis; 100 mg/kg + ABT 100 mg/kg): < 1 log CFU
Mouse survival (M. tuberculosis; 100 mg/kg + ABT 100 mg/kg): 100%
CFU drop (bacteriostatic activity) (M. tuberculosis; 200 mg/kg): < 1 log CFU
Mouse survival (M. tuberculosis; 200 mg/kg): 100%
Spleen, gross necropsy observation (M. tuberculosis; Group 3, ND-012101 + ABT): Slightly enlarged
Spleen, gross necropsy observation (M. tuberculosis; Group 6, ND-012101 alone): Slightly enlarged; also recorded: normal
Lung Log10 CFU ± SEM (M. tuberculosis; ND-012101 (100) + ABT (100)): 5.62 ± 0.06 Log10 CFU
Spleen Log10 CFU ± SEM (M. tuberculosis; ND-012101 (100) + ABT (100)): 4.80 ± 0.14 Log10 CFU
Lung Log10 CFU ± SEM (M. tuberculosis; ND-012101 (200)): 5.93 ± 0.08 Log10 CFU
Spleen Log10 CFU ± SEM (M. tuberculosis; ND-012101 (200)): 5.02 ± 0.08 Log10 CFU
Log reduction vs CTL (Lg) (M. tuberculosis; ND-012101 (100) + ABT (100)): 0.17
Log reduction vs CTL (Lg) (M. tuberculosis; ND-012101 (200)): −0.14
Log reduction vs CTL (Sp) (M. tuberculosis; ND-012101 (100) + ABT (100)): 0.20
Log reduction vs CTL (Sp) (M. tuberculosis; ND-012101 (200)): −0.02
Drug plasma concentration, individual mice [2, 3]: 22700 ng/mL and 19100 ng/mL
Drug plasma concentration, individual mice [2, 4]: 23100 ng/mL and 19900 ng/mL
Drug plasma concentration, individual mice [2, 5]: 37700 ng/mL and 35500 ng/mL
Drug plasma concentration, individual mice [2, 6]: 7900 ng/mL and 3080 ng/mL and 4590 ng/mL
Drug plasma concentration, individual mice [2, 7]: 47200 ng/mL and 35000 ng/mL
Drug plasma concentration, individual mice [2, 8]: 1350 ng/mL and 3490 ng/mL and 966 ng/mL
Drug plasma concentration, Average [2, 9]: 50017^^ ng/mL
Drug plasma concentration, individual mice [2, 9]: 49100^^ ng/mL and 47600^^ ng/mL and 53350^^ ng/mL
Drug plasma concentration, individual mice [2, 10]: 67.6 ng/mL and 22.3 ng/mL and 100 ng/mL
Drug plasma concentration, individual mice [2, 11]: 2.10 ng/mL and 1.19 ng/mL
Drug plasma concentration, individual mice ([2]; 24 h, PO 200 mg/kg, no ABT): BQL
% AUC Extrap ([2]; no ABT): 0.00%
concentration at 0.5 h [2, 12]: 21700 ng/mL
concentration at 0.5 h [2, 13]: 23300 ng/mL
concentration at 2 h [2, 14]: 34300 ng/mL
concentration at 2 h [2, 15]: 29800 ng/mL
concentration at 4 h [2, 16]: 43500 ng/mL
concentration at 4 h [2, 17]: 48200 ng/mL
AUC(0-x)/Dose ([2]; po, 200 mg/kg): 125 ng·h/mL/mg/kg
AUC(0-∞)/Dose ([2]; po, 200 mg/kg): 125 ng·h/mL/mg/kg
Cmax/Dose ([2]; po, 200 mg/kg): 96 ng/mL/mg/kg
concentration at 0.5 h [2, 18]: 19200 ng/mL
concentration at 0.5 h [2, 19]: 14700 ng/mL
concentration at 2 h [2, 20]: 5190 ng/mL
concentration at 4 h [2, 21]: 1940 ng/mL
concentration at 8 h [2, 22]: 63 ng/mL
concentration at 12 h [2, 23]: 2 ng/mL
concentration at 12 h [2, 24]: 2 ng/mL
Cmax [2, 25]: 48400 ng/mL
AUC(0-inf) ([2]; no ABT): 25000 ng·h/mL
Cmax ([2]; no ABT): 19200 ng/mL
Tmax ([2]; no ABT): 60 min
half-life ([2]; no ABT): 47.4 min
AUC ([2]; no ABT): 25000 ng·h/mL

Cc1ccc2nc(C)c(C(=O)NCc3ccc(C(F)(F)F)cc3)n2c1 [ND-011176]
Drug plasma concentration, individual mice [2, 3]: 18100 ng/mL and 22600 ng/mL
Drug plasma concentration, individual mice [2, 4]: 5140 ng/mL and 7170 ng/mL
Drug plasma concentration, individual mice [2, 5]: 29300 ng/mL and 38200 ng/mL
Drug plasma concentration, individual mice [2, 6]: 5280 ng/mL and 4450 ng/mL
Drug plasma concentration, individual mice [2, 7]: 34700 ng/mL and 44900 ng/mL
Drug plasma concentration, individual mice [2, 8]: 432 ng/mL and 507 ng/mL
Drug plasma concentration, Average [2, 9]: 41617^^ ng/mL
Drug plasma concentration, individual mice [2, 9]: 39200^^ ng/mL and 41600^^ ng/mL and 44050^^ ng/mL
Drug plasma concentration, individual mice [2, 10]: 110 ng/mL and 25 ng/mL and 88.2 ng/mL
Drug plasma concentration, individual mice [2, 11]: BQL and 28.8 ng/mL
Drug plasma concentration, individual mice ([2]; 24 h, PO 200 mg/kg, no ABT, 200 mg/kg): BQL
% AUC Extrap ([2]; no ABT): 0.00%
concentration at 0.5 h [2, 12]: 20100 ng/mL
concentration at 0.5 h [2, 13]: 19600 ng/mL
concentration at 2 h [2, 14]: 34600 ng/mL
concentration at 2 h [2, 15]: 36400 ng/mL
concentration at 4 h [2, 16]: 44800 ng/mL
concentration at 4 h [2, 17]: 54800 ng/mL
AUC(0-x)/Dose ([2]; po, 200 mg/kg): 78.4 ng·h/mL/mg/kg
AUC(0-∞)/Dose ([2]; po, 200 mg/kg): 78.4 ng·h/mL/mg/kg
Cmax/Dose ([2]; po, 200 mg/kg): 34 ng/mL/mg/kg
concentration at 0.5 h [2, 18]: 6730 ng/mL
concentration at 0.5 h [2, 19]: 7880 ng/mL
concentration at 2 h [2, 20]: 6100 ng/mL
concentration at 2 h ([2]; po, 200 mg/kg, 2 h, PO 200 mg/kg, no ABT, read-out: Drug plasma concentration, individual mice): 8580 ng/mL
concentration at 4 h [2, 21]: 600 ng/mL
concentration at 4 h ([2]; po, 200 mg/kg, 4 h, PO 200 mg/kg, no ABT, read-out: Drug plasma concentration, individual mice): 861 ng/mL
concentration at 8 h [2, 22]: 74 ng/mL
concentration at 12 h [2, 23]: 34 ng/mL
concentration at 12 h [2, 24]: 40.1 ng/mL
concentration at 24 h ([2]; po, 200 mg/kg, 24 h, PO 200 mg/kg, no ABT, read-out: Drug plasma concentration, Average): 8 ng/mL
concentration at 24 h ([2]; po, 200 mg/kg, 24 h, PO 200 mg/kg, no ABT, read-out: Drug plasma concentration, individual mice): 8.09 ng/mL
Cmax [2, 25]: 44800 ng/mL
AUC(0-inf) ([2]; no ABT): 15700 ng·h/mL
Cmax ([2]; no ABT): 6730 ng/mL
Tmax ([2]; no ABT): 30 min
half-life ([2]; no ABT): 102 min
AUC ([2]; no ABT): 15700 ng·h/mL
cfu reduction with respect to non-treated controls (TB infection; 300 mg/kg): 2 log cfu
cfu reduction with respect to non-treated controls (TB infection; 500 mg/kg): 2 log cfu
Signs of toxicity (TB infection; any of the administered doses): No signs of toxicity
